These results are taken from paper PMC8279492, “Quinolinonyl Non-Diketo Acid Derivatives as Inhibitors of HIV-1 Ribonuclease H and Polymerase Functions of Reverse Transcriptase” (Journal of Medicinal Chemistry, 2021).

Where two headings read alike, the source gives them in different places.

Data set [1] has as its target T1, HIV-1 RT-associated RNase H activity (Human immunodeficiency virus type 1 group M subtype B, UniProt P03366).
T1 construct: His-tagged p66/p51 HIV-1 RT group M subtype B; His; made in house; host or cells: Escherichia coli M15
Kind of data set: biochemical. It counts as biochemical. The protocol:
(11) and β-thujaplicinol (BTP) used as positive controls.
(§1) His-tagged p66/p51 HIV-1 RT group M subtype B coded in a p6HRT-prot plasmid was expressed in the Escherichia coli strain M15.[65] Heterodimeric RTs were expressed essentially and purified as described.[66]
(§2) The HIV-1 RT-associated RNase H activity was measured as described.[68] Briefly, the reaction was carried out in a black 96-well plate in a total volume of 100 μL. […] Experiments were performed in duplicate and replicated at least two times. Data were analyzed as described.[36]

For the next data set, the target named is T2, W535A HIV-1 RT RNase H (Human immunodeficiency virus type 1 group M subtype B, UniProt P03366, W1134A).
T2 construct: Amino acid substitutions were introduced into the p66 HIV-1 RT subunit of a HIV-1 RT; His; made in house; host or cells: Escherichia coli M15
Briefly: RNase H assay, point-mutant W535A RT. Format: biochemical. On the procedure:
(§3) An activity curve was performed for all of the enzymes (Figure S1), and a concentration was chosen in the linear dose-response range to perform the enzymatic-inhibition assays.
(§4) Amino acid substitutions were introduced into the p66 HIV-1 RT subunit of a HIV-1 RT using a QuikChange mutagenesis kit, following the manufacturer’s instructions (Agilent Technologies Inc., Santa Clara, CA).
as §2

Data set [2] in a line: Compounds' toxicity, CellTiter 96 AQueous One Solution Cell Proliferation Assay. It counts as cell-based. The settings on record: human, HeLa-CD4-LTR-β-gal reporter cells. The protocol: (§5) HIV-1 replication was monitored using HeLa-CD4-LTR-β-gal reporter cells as previously described.[69] Briefly, β-galactosidase activity was monitored 24 h post infection using a replication-competent HIV produced in-house (H9-laï coculture) and a serial dilution of molecules or an equivalent volume of DMSO. In parallel, compounds’ toxicity was determined at 24 h in the same cell line using CellTiter 96 AQueous One Solution Cell Proliferation Assay (Promega, France).

A further data set concerns the target T3, Q475A HIV-1 RT RNase H (Human immunodeficiency virus type 1 group M subtype B, UniProt P03366, Q1074A).
T3 construct: Amino acid substitutions were introduced into the p66 HIV-1 RT subunit of a HIV-1 RT; His; made in house; host or cells: Escherichia coli M15
Kind of data set: RNase H assay, point-mutant Q475A RT. It counts as biochemical. The protocol: as §3, §4, §2

A further data set has as its target T4, Y501A HIV-1 RT RNase H (Human immunodeficiency virus type 1 group M subtype B, UniProt P03366, Y1100A).
T4 construct: Amino acid substitutions were introduced into the p66 HIV-1 RT subunit of a HIV-1 RT; His; made in house; host or cells: Escherichia coli M15
Briefly: RNase H assay, point-mutant Y501A RT. It counts as biochemical. On the procedure:
as §3, §4, §2

A further data set addresses T5, R448A HIV-1 RT RNase H (Human immunodeficiency virus type 1 group M subtype B, UniProt P03366, R1047A).
T5 construct: Amino acid substitutions were introduced into the p66 HIV-1 RT subunit of a HIV-1 RT; His; made in house; host or cells: Escherichia coli M15
Briefly: RNase H assay, point-mutant R448A RT. It counts as biochemical. On the procedure: as §3, §4, §2

In a further data set the test system is HIV-1 replication. Briefly: HIV-1 replication in HeLa-CD4-LTR-β-gal reporter cells. Format: cell-based. On the procedure:
as §5

The target of the next data set is HIV-1 IN (Human immunodeficiency virus type 1 group M subtype B, UniProt P12497). Kind of data set: biochemical. On the procedure:
His-tagged NL4-3 IN was expressed from a pET15b plasmid in the E. coli BL21 pLys strain. Recombinant protein was purified as previously described[67] following a batch preparation on Ni-NTA beads (Qiagen, Paris, France).
Both oligonucleotides were purchased from Integrated DNA Technologies, Inc. (Coralville, IA), and the gel was purified in-house. ST reactions were performed by adding molecules or an equivalent volume of 100% dimethyl sulfoxide (DMSO, used as the drug solvent) to a mixture of 20 nM duplex DNA substrate and 400 nM IN in 50 mM MOPS pH 7.2, 7.5 mM MgCl2, and 14 mM 2-mercaptoethanol. Mixtures were incubated at 37 °C for 2 h, and the reaction was quenched by addition of an equal volume of loading buffer [formamide containing 1% sodium dodecyl sulfate (SDS), 0.25% bromophenol blue, and xylene cyanol]. […] Dried gels were visualized using a FLA5000 (Fuji Photo Film, Tokyo, Japan). Densitometric analyses were performed using ImageQuant 5.1 software from GE Healthcare.

In the next data set the target is T6, HIV-1 RT-RDDP activity (Human immunodeficiency virus type 1 group M subtype B, UniProt P03366).
T6 construct: His-tagged p66/p51 HIV-1 RT group M subtype B; His; made in house; host or cells: Escherichia coli M15
Kind of data set: Polymerase assay (RNA-dependent DNA polymerase). It counts as biochemical. The protocol: as §1
The HIV-1 RT-associated RNA-dependent DNA polymerase activity was measured as described.[65] Briefly, the reaction was carried out in a black 96-well plate in a total volume of 25 μL. Serial dilutions of compounds were added to the reaction mix containing 60 mM Tris HCl buffer pH 8.1, 8 mM MgCl2, 60 mM KCl, 13 mM DTT, 2.5 mM poly(A)-oligo(dT), and […].

A further data set concerns the target T7, K451A HIV-1 RT RNase H (Human immunodeficiency virus type 1 group M subtype B, UniProt P03366, K1050A).
T7 construct: Amino acid substitutions were introduced into the p66 HIV-1 RT subunit of a HIV-1 RT; His; made in house; host or cells: Escherichia coli M15
Kind of data set: RNase H assay, point-mutant K451A RT. It counts as biochemical. On the procedure: as §3, §4, §2

The target in the next data set is T8, N474A HIV-1 RT RNase H (Human immunodeficiency virus type 1 group M subtype B, UniProt P03366, N1073A).
T8 construct: Amino acid substitutions were introduced into the p66 HIV-1 RT subunit of a HIV-1 RT; His; made in house; host or cells: Escherichia coli M15
Briefly: RNase H assay, point-mutant N474A RT. It counts as biochemical. On the procedure: as §3, §4, §2

The target in the next data set is T9, K540A HIV-1 RT RNase H (Human immunodeficiency virus type 1 group M subtype B, UniProt P03366, K1139A).
T9 construct: Amino acid substitutions were introduced into the p66 HIV-1 RT subunit of a HIV-1 RT; His; made in house; host or cells: Escherichia coli M15
Kind of data set: RNase H assay, point-mutant K540A RT. It counts as biochemical. The protocol:
as §3, §4, §2

The next data set relates to IN. The settings on record: read-out: IN inhibitory activity IC50; cited from earlier work.
The next data set has as its target RNase H. The conditions noted are these: cited from earlier work.

Usually IC50 stands for the midpoint of a concentration-inhibition curve. By CC50 is commonly meant the concentration giving 50% cytotoxicity. As usually defined, the EC50 is the concentration at which the effect is half-maximal. With `O=C(O)c1cn(Cc2ccc(F)cc2)c2ccc(OCc3ccc(OCc4ccccc4)cc3)cc2c1=O` [4t, 6-((4-(Benzyloxy)benzyl)oxy)-1-(4-fluorobenzyl)-4-oxo-1,4-dihydroquinoline-3-carboxylic Acid], the IC50 in [1] (anti-RH activity (IC50 ± SD), HIV-1 RT-associated RNase H activity, dose-response curves, no preincubation) was 7.48 ± 0.28 µM; in data set [1] (wt (RH IC50, uM), supplement CSV, mutagenesis study), 1.9 ± 0.4 µM; at W535A HIV-1 RT RNase H, greater than 100000 nM; at Q475A HIV-1 RT RNase H it was 15600 ± 1600 nM; against Y501A HIV-1 RT RNase H it was greater than 100000 nM; on R448A HIV-1 RT RNase H, 2200 ± 1300 nM. The 50% inhibitory concentration (IC50) was greater than 100000 nM on HIV-1 IN; 2200 ± 100 nM against HIV-1 RT-RDDP activity; 2900 ± 1300 nM against K451A HIV-1 RT RNase H; 1160 ± 1410 nM against N474A HIV-1 RT RNase H; 2000 ± 1200 nM at K540A HIV-1 RT RNase H. On W535A HIV-1 RT RNase H, the “Fold increase in IC50 compared to wt RT, W535A” value is recorded as greater than 52.4 fold. Further, the “W535A (Fold)” value at W535A HIV-1 RT RNase H (supplement CSV, vs wt) was greater than 52.4. Moreover, the CC50 at 24 h is greater than 100000 nM in data set [2] (CC50 (cytotoxic concentration 50%), HeLa-CD4-LTR-β-gal cells, 24 h) and greater than 16000 nM in [2] (supplement CSV, read-out: CC50). Besides, in the data set on HIV-1 replication (CC50/EC50), the “SI (selectivity index = CC50/EC50)” value is greater than 57.8. Moreover, the EC50 with HIV-1 replication (Human immunodeficiency virus 1, 24 h, read-out: antiviral activity EC50) worked out at 1730 ± 470 nM.

For the compound `O=C(O)/C(O)=C/C(=O)c1cn(Cc2ccc(F)cc2)c2cc(N3CCCC3)ccc2c1=O` [compound 2], the IC50 was 28 nM with IN and 5100 nM at RNase H.
